Measurements: PubChem BioAssay (NCI)
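All cell lines were grown in 96-well plates and treated with compound for 48 hours. TGI marks complete inhibition of growth.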

Tests used:
Assay in all cases: NCI anticancer screen, dose series, 48 h
[1] = test system: 786-0 renal
[2] = test system: A549 NSCLC
[3] = test system: ACHN renal
[4] = test system: CAKI-1 renal
[5] = test system: CCRF-CEM leukemia
[6] = test system: COLO 205 colon
[7] = test system: DLD-1 colon
[8] = test system: DMS 114 small cell lung
[9] = test system: DMS 273 small cell lung
[10] = test system: EKVX NSCLC
[11] = test system: HCC-2998 colon
[12] = test system: HCT-15 colon
[13] = test system: HL-60(TB) leukemia
[14] = test system: HOP-18 NSCLC
[15] = test system: HOP-62 NSCLC
[16] = test system: HOP-92 NSCLC
[17] = test system: HT29 colon
[18] = test system: IGROV1 ovarian
[19] = test system: K-562 leukemia
[20] = test system: KM12 colon
[21] = test system: KM20L2 colon
[22] = test system: LOX IMVI melanoma
[23] = test system: LXFL 529 NSCLC
[24] = test system: M14 melanoma
[25] = test system: M19-MEL melanoma
[26] = test system: MALME-3M melanoma
[27] = test system: MOLT-4 leukemia
[28] = test system: NCI-H23 lung
[29] = test system: NCI-H460 lung
[30] = test system: NCI-H522 lung
[31] = test system: OVCAR-3 ovarian
[32] = test system: OVCAR-4 ovarian
[33] = test system: OVCAR-5 ovarian
[34] = test system: OVCAR-8 ovarian
[35] = test system: RPMI-8226 leukemia
[36] = test system: RXF 393 renal
[37] = test system: RXF-631 renal
[38] = test system: SF-268 CNS
[39] = test system: SF-295 CNS
[40] = test system: SF-539 CNS
[41] = test system: SK-MEL-2 melanoma
[42] = test system: SK-MEL-28 melanoma
[43] = test system: SK-MEL-5 melanoma
[44] = test system: SK-OV-3 ovarian
[45] = test system: SN12C renal
[46] = test system: SNB-19 CNS
[47] = test system: SNB-75 CNS
[48] = test system: SW-620 colon
[49] = test system: TK-10 renal
[50] = test system: U251 CNS
[51] = test system: UACC-257 melanoma
[52] = test system: UACC-62 melanoma
[53] = test system: UO-31 renal
[54] = test system: A498 renal
[55] = test system: DU-145 prostate
[56] = test system: HCT-116 colon
[57] = test system: HS 578T breast
[58] = test system: MCF7 breast
[59] = test system: MDA-MB-231 breast
[60] = test system: MDA-MB-435
[61] = test system: MDA-N
[62] = test system: NCI-H226 lung
[63] = test system: NCI/ADR-RES ovarian
[64] = test system: PC-3 prostate
[65] = test system: SNB-78 CNS
[66] = test system: SR leukemia
[67] = test system: T-47D breast

Measured: TGI

O=S1[C@H](c2ccccc2)c2c(-c3ccccc3)sc(-c3ccccc3)c2[C@@H]1c1ccccc1 (stereo partly drawn)
27.2 µM: [30]
87.9 µM: [47]
40.6 µM: [13]
67.9 µM: [16]
> 100 µM: [1] | [2] | [3] | [4] | [5] | [6] | [7] | [8] | [9] | [10] | [11] | [12] | [14] | [15] | [17] | [18] | [19] | [20] | [21] | [22] | [23] | [24] | [25] | [26] | [27] | [28] | [29] | [31] | [32] | [33] | [34] | [35] | [36] | [37] | [38] | [39] | [40] | [41] | [42] | [43] | [44] | [45] | [46] | [48] | [49] | [50] | [51] | [52] | [53]

Cc1nc2c(n1-c1ccc(Br)cc1)C(=O)c1ccccc1C2=O
50 µM: [57]
> 40.6 µM: [53]
> 85.1 µM: [52]
> 100 µM: [54] | [2] | [3] | [4] | [5] | [6] | [7] | [8] | [9] | [55] | [10] | [11] | [12] | [15] | [17] | [19] | [20] | [22] | [24] | [58] | [59] | [61] | [27] | [62] | [28] | [63] | [32] | [33] | [35] | [37] | [38] | [41] | [42] | [43] | [45] | [65] | [66] | [48] | [67] | [49] | [51]
97 µM: [44]
> 65.2 µM: [40]
> 79.2 µM: [30]
23.3 µM: [60]
> 71.1 µM: [1]
66 µM: [16]
> 74 µM: [56]
> 70.1 µM: [34]
18 µM: [13]
> 40.9 µM: [29]
> 67.2 µM: [26]
69.9 µM: [36]
> 43.6 µM: [50]
> 39.4 µM: [46]
> 59.6 µM: [39]
> 62.1 µM: [47]
> 64.4 µM: [18]
31.3 µM: [31]
51 µM: [64]

CC(C)(C)c1ccc2c(c1)S(=O)(=O)Nc1cccc(c1)NS(=O)(=O)c1cc(C(C)(C)C)ccc1OCCOCCO2
> 100 µM: [1] | [54] | [2] | [3] | [4] | [6] | [7] | [8] | [9] | [10] | [11] | [56] | [12] | [14] | [15] | [16] | [17] | [18] | [19] | [20] | [22] | [24] | [25] | [26] | [27] | [62] | [28] | [29] | [31] | [32] | [33] | [34] | [35] | [36] | [37] | [38] | [39] | [40] | [41] | [42] | [43] | [44] | [45] | [46] | [47] | [65] | [48] | [49] | [50] | [51] | [52] | [53]
